Literature values as cited in patent US9173403B2, “Parasiticidal compositions comprising multiple active agents, methods and uses thereof” (MERIAL, INC., priority 2010, dated 2015).

Details: beagle dogs; spot-on administration; 14C radiolabeled drug

N#Cc1nn(-c2c(Cl)cc(C(F)(F)F)cc2Cl)c(N)c1[S+]([O-])C(F)(F)F (stereo not shown) [fipronil, 5-amino-3-cyano-1-(2,6-dichloro-4-trifluoromethylphenyl)-4-trifluoromethylsulfinylpyrazole]
time persistently detected in the whole skin after treatment: up to 56 days
